Laboratory results reported in ChEMBL document CHEMBL1909046, “DrugMatrix in vitro pharmacology data”.
pIC50: −log10 of the molar value.

Experiments:
[1] = DRUGMATRIX: Sodium/nucleoside co-transporter radioligand binding (ligand: nitrobenzylthioinosine); assay type: cell membranes, Cavia porcellus, Dunkin-Hartley, Cerebral cortex, Membrane; conditions: Not Active = under 50% inhibition at 10 µM
[2] = DRUGMATRIX: Calcium Channel Type L, Benzothiazepine radioligand binding (ligand: [3H] Diltiazem); assay type: cell membranes, Rattus norvegicus, Wistar, Brain, Membrane; conditions: Not Active = under 50% inhibition at 10 µM
D(1A) dopamine receptor = D(1A) dopamine receptor (Homo sapiens, UniProt P21728); experiment: DRUGMATRIX: Dopamine D1 radioligand binding (ligand: [3H] SCH-23390); assay type: cell membranes, CHO, Membrane; conditions: cho; Not Active = under 50% inhibition at 10 µM
Sequence of D(1A) dopamine receptor (P21728 whole entry): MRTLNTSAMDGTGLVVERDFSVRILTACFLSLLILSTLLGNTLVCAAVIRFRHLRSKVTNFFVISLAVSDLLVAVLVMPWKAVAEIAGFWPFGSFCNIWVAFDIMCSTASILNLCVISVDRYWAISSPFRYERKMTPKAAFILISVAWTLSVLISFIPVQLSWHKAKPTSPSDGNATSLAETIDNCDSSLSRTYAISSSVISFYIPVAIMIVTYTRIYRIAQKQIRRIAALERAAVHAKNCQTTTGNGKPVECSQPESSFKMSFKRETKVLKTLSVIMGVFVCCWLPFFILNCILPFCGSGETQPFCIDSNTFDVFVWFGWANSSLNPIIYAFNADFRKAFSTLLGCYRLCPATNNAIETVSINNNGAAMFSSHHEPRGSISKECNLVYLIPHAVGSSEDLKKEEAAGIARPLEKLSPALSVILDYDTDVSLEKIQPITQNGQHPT

[3] = DRUGMATRIX: Glutamate, Kainate radioligand binding (ligand: [3H] Kainic acid); assay type: cell membranes, Rattus norvegicus, Wistar, Brain, Membrane; conditions: Not Active = under 50% inhibition at 10 µM
[4] = DRUGMATRIX: Leukotriene, BLT (LTB4) radioligand binding (ligand: [3H]LTB4); assay type: cell membranes, Membrane; conditions: u-937; Not Active = under 50% inhibition at 10 µM
Leukotriene C4 synthase = target: T1, Leukotriene C4 synthase (Cavia porcellus, UniProt A6XA80); assay type: tissue-based, Lung;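 further: enzyme inhibition assay of leukotriene C4 synthase, using LTA4 as the substrate; in other assays of this panel Not Active means under 50% inhibition at 10 µM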
T1 sequence (A6XA80 whole entry): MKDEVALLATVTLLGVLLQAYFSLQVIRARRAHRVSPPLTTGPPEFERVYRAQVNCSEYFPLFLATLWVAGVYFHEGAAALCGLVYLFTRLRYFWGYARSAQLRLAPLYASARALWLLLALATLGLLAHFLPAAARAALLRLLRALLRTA

[5] = DRUGMATRIX: Phosphodiesterase PDE4 enzyme inhibition (substrate: [3H]cAMP + cAMP); conditions: u-937, Not Active = under 50% inhibition at 10 µM

| Molecule | IC50 [1] | Ki [1] | IC50 [2] | Ki [2] | IC50 (D(1A) dopamine receptor) | IC50 [3] | Ki [3] | IC50 [4] | Ki [4] | IC50 (Leukotriene C4 synthase) | IC50 [5] | Ki [5] | pIC50 ([5]; read-out: IC50) | Ki (D(1A) dopamine receptor) | Ki (Leukotriene C4 synthase) |
| --- | --- | --- | --- | --- | --- | --- | --- | --- | --- | --- | --- | --- | --- | --- | --- |
| CN(Cc1cnc2nc(N)nc(N)c2n1)c1ccc(C(=O)N[C@@H](CCC(=O)O)C(=O)O)cc1 [METHOTREXATE] | Not Active | Not Active | Not Active | Not Active | Not Active | Not Active | Not Active | Not Active | Not Active | Not Active | Not Active | Not Active |  |  |  |
| COC(=O)c1ccccc1O [METHYL SALICYLATE] | Not Active | Not Active | Not Active | Not Active | Not Active | Not Active | Not Active | Not Active | Not Active | Not Active | Not Active | Not Active |  |  |  |
| COc1ccc2cc(CCC(C)=O)ccc2c1 [NABUMETONE] | Not Active | Not Active | Not Active | Not Active | Not Active | Not Active | Not Active | Not Active | Not Active | Not Active | Not Active | Not Active |  |  |  |
| O=C(O)c1cccnc1 [NIACIN] | Not Active | Not Active | Not Active | Not Active | Not Active | Not Active | Not Active | Not Active | Not Active | Not Active | Not Active | Not Active |  |  |  |
| CNC(=C[N+](=O)[O-])NCCSCc1csc(CN(C)C)n1 [NIZATIDINE] | Not Active | Not Active | Not Active | Not Active | Not Active | Not Active | Not Active | Not Active | Not Active | Not Active | Not Active | Not Active |  |  |  |
| C[C@]12C/C(=C/O)C(=O)C[C@@H]1CC[C@@H]1[C@@H]2CC[C@@]2(C)[C@H]1CC[C@]2(C)O [OXYMETHOLONE] | Not Active | Not Active | Not Active | Not Active | Not Active | Not Active | Not Active | Not Active | Not Active | Not Active | Not Active | Not Active |  |  |  |
| CC(C)(CO)C(O)C(=O)NCCCO (configuration not stated) [PANTHENOL] | Not Active | Not Active | Not Active | Not Active | Not Active | Not Active | Not Active | Not Active | Not Active | Not Active | Not Active | Not Active |  |  |  |
| COc1ccc(Cc2nccc3cc(OC)c(OC)cc23)cc1OC [PAPAVERINE] | Not Active | Not Active | Not Active | Not Active | Not Active | Not Active | Not Active | Not Active | Not Active | Not Active |  |  | 6.09 |  |  |
| OCCN1CCN(CCCN2c3ccccc3Sc3ccc(Cl)cc32)CC1 [PERPHENAZINE] | Not Active | Not Active | Not Active | Not Active | Not Active | Not Active | Not Active | Not Active | Not Active | Not Active | Not Active | Not Active |  |  |  |
| CCCCC1C(=O)N(c2ccccc2)N(c2ccccc2)C1=O [PHENYLBUTAZONE] | Not Active | Not Active | Not Active | Not Active | Not Active | Not Active | Not Active | Not Active | Not Active | Not Active | Not Active | Not Active |  |  |  |
| Cc1cccc(Nc2cc(Cl)nc(SCC(=O)O)n2)c1C [PIRINIXIC ACID] | Not Active | Not Active | Not Active | Not Active | Not Active | Not Active | Not Active | Not Active | Not Active | Not Active | Not Active | Not Active |  |  |  |
| CC[C@H](C)C(=O)O[C@H]1C[C@H](O)C=C2C=C[C@H](C)[C@H](CC[C@@H](O)C[C@@H](O)CC(=O)O)[C@H]21 [PRAVASTATIN] | Not Active | Not Active | Not Active | Not Active | Not Active | Not Active | Not Active | Not Active | Not Active | Not Active | Not Active | Not Active |  |  |  |
| CC(C)(Sc1cc(C(C)(C)C)c(O)c(C(C)(C)C)c1)Sc1cc(C(C)(C)C)c(O)c(C(C)(C)C)c1 [PROBUCOL] | Not Active | Not Active | Not Active | Not Active | Not Active | Not Active | Not Active | Not Active | Not Active | Not Active | Not Active | Not Active |  |  |  |
| COBALT(II) ACETYLACETONATE | Not Active | Not Active | Not Active | Not Active | Not Active | Not Active | Not Active | Not Active | Not Active | Not Active | Not Active | Not Active |  | Not Active | Not Active |
| INSULIN HUMAN | Not Active | Not Active | Not Active | Not Active | Not Active | Not Active | Not Active | Not Active | Not Active | Not Active | Not Active | Not Active |  | Not Active | Not Active |
| POLYVINYL ALCOHOL | Not Active | Not Active | Not Active | Not Active | Not Active | Not Active | Not Active | Not Active | Not Active | Not Active | Not Active | Not Active |  | Not Active | Not Active |
